The values below are quoted from earlier work in patent publication US20080200520A1, “Iron Modulators” (BTG INTERNATIONAL LIMITED, priority 2005, published 2008).

The structures appear in SMILES notation. Structures can show the parent of a compound that is named as a salt.

The conditions of data set [1]: comparative compounds, commercial lots.
The conditions of data set [2]: comparative compounds, commercial lots. The source holds these as a separate data set.
The conditions of data set [3]: comparative compounds, commercial lots; solvent in which soluble.
For the next data set, the system named is mice. The following applies: oral treatment.

Consider `CC(=O)N(O)CCCCCNC(=O)CCC(=O)N(O)CCCCCNC(=O)CCC(=O)N(O)CCCCCN` [Desferrioxamine Mesylate], for which the “Potential Hazards” value in data set [1] was “none”. The Stability entry in data set [2] was “stable”. For the same molecule, the Solubility entry in data set [3] is “water”.

As to `Cc1c(O)c(=O)ccn1C` [Deferiprone], the Stability entry in data set [2] is on record as “stable”. The Solubility result in data set [3] was “water”.

As to `Oc1c(I)cc(Cl)c2cccnc12` [Clioquinol], the “Potential Hazards” value in data set [1] is “harmful. Sensitisation by inhalation and skin contact. Causes severe irritation. Readily absorbed through skin. Target organs: eyes and nerves”. Besides, the “protection from the effects of MPTP” value with mice is listed as “protect mice from the effects of MPTP”. In addition, the Stability entry in data set [2] is “stable”. Also, the Solubility entry in data set [3] is listed as “DMSO”.
